The results in this text go back to patent US7265147B2, “3,6-disubstituted azabicyclo [3.1.0]hexane derivatives useful as muscarinic receptor antagonists” (Ranbaxy Laboratories Limited, priority 2002, dated 2007).

Like-named read-outs stand apart in the source and are kept apart here.

The target in assay [1] is T1, M2 muscarinic receptor (Rattus norvegicus, UniProt P10980).
T1 construct: Submandibular glands and heart were isolated and placed in ice cold homogenising buffer; from tissue; host or cells: rat heart membrane homogenate
T1 sequence (P10980 1-466): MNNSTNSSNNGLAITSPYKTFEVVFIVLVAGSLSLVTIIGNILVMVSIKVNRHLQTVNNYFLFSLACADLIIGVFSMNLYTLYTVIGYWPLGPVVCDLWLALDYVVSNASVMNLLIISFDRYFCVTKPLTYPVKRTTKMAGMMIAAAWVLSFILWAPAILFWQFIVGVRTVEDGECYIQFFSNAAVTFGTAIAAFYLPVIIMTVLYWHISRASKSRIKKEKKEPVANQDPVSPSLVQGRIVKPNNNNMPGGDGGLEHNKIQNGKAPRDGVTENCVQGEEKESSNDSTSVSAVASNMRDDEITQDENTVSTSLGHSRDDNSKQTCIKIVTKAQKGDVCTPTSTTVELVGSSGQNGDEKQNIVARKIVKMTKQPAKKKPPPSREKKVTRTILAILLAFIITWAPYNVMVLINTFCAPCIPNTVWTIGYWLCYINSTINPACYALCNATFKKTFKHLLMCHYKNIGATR
Description: Radioligand binding assay, [3H]-N-methylscopolamine, rat heart membranes.

Assay [2] concerns the target T2, M3 muscarinic receptor (Rattus norvegicus, UniProt P08483). Conditions: for Ki: read-out: Receptor Binding Assay Ki (nM) M3.
Assay [3] concerns the target T2, M3 muscarinic receptor. Briefly: biochemical.
[4] abbreviates: read-out: Receptor Binding Assay Ki (nM) M2.

T2 sequence (P08483 whole entry): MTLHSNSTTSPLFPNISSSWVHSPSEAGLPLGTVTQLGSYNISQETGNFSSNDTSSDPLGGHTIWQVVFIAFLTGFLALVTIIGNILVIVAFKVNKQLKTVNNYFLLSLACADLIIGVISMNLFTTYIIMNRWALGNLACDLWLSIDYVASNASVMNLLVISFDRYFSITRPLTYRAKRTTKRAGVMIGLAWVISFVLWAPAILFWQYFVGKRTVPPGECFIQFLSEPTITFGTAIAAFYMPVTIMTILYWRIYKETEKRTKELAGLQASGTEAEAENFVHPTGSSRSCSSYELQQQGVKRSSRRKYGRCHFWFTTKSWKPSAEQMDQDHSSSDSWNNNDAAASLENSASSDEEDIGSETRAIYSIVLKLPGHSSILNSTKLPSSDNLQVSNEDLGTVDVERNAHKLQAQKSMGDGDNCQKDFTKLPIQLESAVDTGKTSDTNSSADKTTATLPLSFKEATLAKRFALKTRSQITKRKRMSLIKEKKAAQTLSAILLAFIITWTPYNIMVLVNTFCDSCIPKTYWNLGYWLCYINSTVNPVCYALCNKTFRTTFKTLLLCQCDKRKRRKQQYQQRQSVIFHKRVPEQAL

As to `O=C(NCC#CCN1C[C@H]2C[C@H]2C1)C(O)(c1ccccc1)c1ccccc1` [Compound No. 11, N-{4-[(1R, 5S)-3-azabicyclo[3.1.0]-hex-3-yl]but-2-ynyl}-2-hydroxy-2,2-diphenylacetamide], in assay [1], the affinity, expressed as Ki, was 639 nM.

Turning to `O=C(NCC#CCN1C[C@H]2C[C@H]2C1)C(O)(c1ccccc1)C1CCCCC1` (stereo partly drawn) [Compound No. 9, N-{4-[(1R, 5S)-3-azabicyclo[3.1.0]-hex-3-yl]but-2-ynyl}-2-hydroxy-2-cyclohexyl-2-phenylacetamide], the affinity in assay [1] corresponds to a Ki of 3580 nM.

For `O=C(NCC#CCN1C[C@H]2C[C@H]2C1)C(O)(c1ccccc1)C1CCCC1` (stereo partly drawn) [Compound No. 10, N-{4-[(1R, 5S)-3-azabicyclo[3.1.0]-hex-3-yl]but-2-ynyl}-2-hydroxy-2-cyclopentyl-2-phenylacetamide], the inhibition constant (Ki) (commonly the equilibrium dissociation constant of an inhibitor or competing ligand from its target) in assay [1] was 425 nM; in assay [3] it was 330 nM. In addition, the “Selectivity (M2/M3)” value in assay [2] turned out to be 1.28.

“4-[(1S,5R)-2-methyl-3-azabicyclo[3.1.0]hex-3-yl]-but-2-ynyl-2-cyclopentyl-2-hydroxyphenylacetate [Compound No. 17]”: in assay [1] (setting [4]), the inhibition constant (Ki) worked out at 142 nM. Moreover, in assay [2], the “Selectivity (M2/M3)” value was 3.641 and the inhibitory constant (Ki) stood at 39 nM.

With “4-[(1S,5R)-2-methyl-3-azabicyclo[3.1.0]hex-3-yl]-but-2-ynyl-2-cyclohexyl-2-hydroxyphenylacetate [Compound No. 18]”, the Ki in assay [1] (setting [4]) came to 185 nM; in assay [2], 24 nM. Also, the “Selectivity (M2/M3)” value in assay [2] was 7.708.

For the molecule `O=C(NCC#CCN1C[C@H]2C[C@H]2C1)C(O)(c1ccc(F)cc1)c1ccc(F)cc1` [Compound No. 12, N-{4-[(1R,5S)-3-azabicyclo[3.1.0]-hex-3-yl]-but-2-ynyl}2-hydroxy-bis(4-florophenyl)acetamide], the inhibition constant Ki in assay [1] is 736 nM.
